Measured values published in ChEMBL document CHEMBL1201862, “PubChem BioAssay data set” (2004).
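Results reflect a 48-hour exposure of cells in 96-well plates to compound at five concentrations. GI50 marks 50% less growth.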 The source made the active and inactive calls. Rule as the data show it: active = GI50 up to about 1.1 µM and inactive = higher.

What was measured:
Assay in all cases: DTP human tumour cell line panel, 48 h
SK-MEL-2 = test system: SK-MEL-2
SF-539 = test system: SF-539
SF-295 = test system: SF-295
NCI-H522 = test system: NCI-H522
LOX IMVI = test system: LOX IMVI
DMS-273 = test system: DMS-273
SF-268 = test system: SF-268
SNB-75 = test system: SNB-75
SK-MEL-28 = test system: SK-MEL-28
M19-MEL = test system: M19-MEL
ACHN = test system: ACHN
HCT-116 = test system: HCT-116
A549 = test system: A549
DLD-1 = test system: DLD-1
NCI-H23 = test system: NCI-H23
RPMI-8226 = test system: RPMI-8226
SK-MEL-5 = test system: SK-MEL-5
HCT-15 = test system: HCT-15
NCI-H460 = test system: NCI-H460
SK-OV-3 = test system: SK-OV-3
OVCAR-4 = test system: OVCAR-4
M14 = test system: M14
HOP-62 = test system: HOP-62
UACC-257 = test system: UACC-257
786-0 = test system: 786-0
LXFL 529 = test system: LXFL 529
RXF 393 = test system: RXF 393
OVCAR-5 = test system: OVCAR-5
Malme-3M = test system: Malme-3M
SN12C = test system: SN12C
CCRF-CEM = test system: CCRF-CEM
U-251 = test system: U-251
COLO 205 = test system: COLO 205
OVCAR-8 = test system: OVCAR-8
DMS-114 = test system: DMS-114
HOP-18 = test system: HOP-18
MOLT-4 = test system: MOLT-4
UACC-62 = test system: UACC-62
KM12 = test system: KM12
SNB-78 = test system: SNB-78
TK-10 = test system: TK-10
K562 = test system: K562
HT-29 = test system: HT-29
UO-31 = test system: UO-31
IGROV-1 = test system: IGROV-1
OVCAR-3 = test system: OVCAR-3
HCC 2998 = test system: HCC 2998
KM-20L2 = test system: KM-20L2
NCI-H226 = test system: NCI-H226
CAKI-1 = test system: CAKI-1
XF498 = test system: XF498
SR = test system: SR
SNB-19 = test system: SNB-19
SW-620 = test system: SW-620
HOP-92 = test system: HOP-92
HL-60 = test system: HL-60
A498 = test system: A498
EKVX = test system: EKVX

In the case of `Cc1ccccc1NC(=O)CSc1nnc(Cc2ccccc2)o1`, the GI50 (SK-MEL-2) is reported as > 100 µM (inactive), the GI50 (SF-539) is reported as > 100 µM (inactive) and the GI50 (SF-295) is reported as > 100 µM (inactive). The GI50 (NCI-H522) was > 100 µM (inactive), the GI50 (LOX IMVI) was > 100 µM (inactive) and the GI50 (DMS-273) was > 100 µM (inactive). For the same molecule, the GI50 (SF-268) was > 100 µM (inactive), the GI50 (SNB-75) was > 100 µM (inactive) and the GI50 (SK-MEL-28) was > 100 µM (inactive). For the same molecule, the GI50 (M19-MEL) was > 100 µM (inactive), the GI50 (ACHN) was > 100 µM (inactive) and the GI50 (HCT-116) was > 100 µM (inactive). The GI50 (A549) was > 100 µM (inactive), the GI50 (DLD-1) was > 100 µM (inactive) and the GI50 (NCI-H23) was > 100 µM (inactive). For the same molecule, the GI50 (RPMI-8226) was > 100 µM (inactive), the GI50 (SK-MEL-5) was > 100 µM (inactive) and the GI50 (HCT-15) was over 100 µM. For the same molecule, the GI50 (NCI-H460) was > 100 µM (inactive), the GI50 (SK-OV-3) was > 100 µM (inactive) and the GI50 (OVCAR-4) was > 100 µM (inactive). The GI50 (M14) was > 100 µM (inactive), the GI50 (HOP-62) was > 100 µM (inactive) and the GI50 (UACC-257) was > 100 µM (inactive). The GI50 (786-0) was > 100 µM (inactive), the GI50 (LXFL 529) was > 100 µM (inactive) and the GI50 (RXF 393) was > 100 µM (inactive). For the same molecule, the GI50 (OVCAR-5) was > 100 µM (inactive), the GI50 (Malme-3M) was > 100 µM (inactive) and the GI50 (SN12C) was > 100 µM (inactive). For the same molecule, the GI50 (CCRF-CEM) was > 100 µM (inactive), the GI50 (U-251) was > 100 µM (inactive) and the GI50 (COLO 205) was > 100 µM (inactive). For the same molecule, the GI50 (OVCAR-8) was > 100 µM (inactive), the GI50 (DMS-114) was > 100 µM (inactive) and the GI50 (HOP-18) was > 100 µM (inactive). For the same molecule, the GI50 (MOLT-4) was > 100 µM (inactive), the GI50 (UACC-62) was > 100 µM (inactive) and the GI50 (KM12) was > 100 µM (inactive). The GI50 (SNB-78) was > 100 µM (inactive), the GI50 (TK-10) was > 100 µM (inactive) and the GI50 (K562) was > 100 µM (inactive). For the same molecule, the GI50 (HT-29) was > 100 µM (inactive), the GI50 (UO-31) was > 100 µM (inactive) and the GI50 (IGROV-1) was > 100 µM (inactive). For the same molecule, the GI50 (OVCAR-3) was > 100 µM (inactive), the GI50 (HCC 2998) was > 100 µM (inactive) and the GI50 (KM-20L2) was > 100 µM (inactive). For the same molecule, the GI50 (NCI-H226) was > 100 µM (inactive).

`CCN(CC)CCn1c2ccccc2c(=O)c2c(OC)ccc(OC)c21` was tested, and the GI50 (CAKI-1) was 68.5 µM (inactive), the GI50 (SK-MEL-2) was > 100 µM (inactive) and the GI50 (XF498) was 87.5 µM (inactive). The GI50 (SF-539) was 39.1 µM (inactive), the GI50 (SF-295) was 61.2 µM (inactive) and the GI50 (NCI-H522) was > 96.4 µM (inactive). The GI50 (LOX IMVI) was 36.5 µM (inactive), the GI50 (DMS-273) was 37.3 µM (inactive) and the GI50 (SF-268) was 55.8 µM (inactive). The GI50 (M19-MEL) was 65 µM (inactive), the GI50 (ACHN) was 47.9 µM (inactive) and the GI50 (HCT-116) was 37.9 µM (inactive). The GI50 (A549) was 63.7 µM (inactive), the GI50 (NCI-H23) was > 100 µM (inactive) and the GI50 (RPMI-8226) was 92.3 µM (inactive). The GI50 (HCT-15) was 57.5 µM, the GI50 (NCI-H460) was 41.9 µM (inactive) and the GI50 (SR) was 32.2 µM (inactive). The GI50 (SK-OV-3) was > 10 µM (inactive), the GI50 (OVCAR-4) was > 100 µM (inactive) and the GI50 (M14) was > 100 µM (inactive). For the same molecule, the GI50 (HOP-62) was > 100 µM (inactive), the GI50 (UACC-257) was 45.8 µM (inactive) and the GI50 (786-0) was 69.5 µM (inactive). For the same molecule, the GI50 (LXFL 529) was 68.5 µM (inactive), the GI50 (RXF 393) was 32.4 µM (inactive) and the GI50 (OVCAR-5) was 99.5 µM (inactive). For the same molecule, the GI50 (Malme-3M) was 77.4 µM (inactive), the GI50 (SN12C) was 52.4 µM (inactive) and the GI50 (CCRF-CEM) was 46.6 µM (inactive). The GI50 (U-251) was 65.6 µM (inactive), the GI50 (COLO 205) was 38.7 µM (inactive) and the GI50 (OVCAR-8) was 48.4 µM (inactive). For the same molecule, the GI50 (SNB-19) was > 100 µM (inactive), the GI50 (SW-620) was 6.59 µM (inactive) and the GI50 (MOLT-4) was 36.8 µM (inactive). For the same molecule, the GI50 (UACC-62) was > 10 µM (inactive), the GI50 (KM12) was 56.9 µM (inactive) and the GI50 (SNB-78) was 40.6 µM (inactive). For the same molecule, the GI50 (HOP-92) was > 94.2 µM (inactive), the GI50 (HL-60) was 84.3 µM (inactive) and the GI50 (K562) was 35.3 µM (inactive). For the same molecule, the GI50 (HT-29) was 46.9 µM (inactive), the GI50 (UO-31) was 43.9 µM (inactive) and the GI50 (IGROV-1) was > 10 µM (inactive). For the same molecule, the GI50 (OVCAR-3) was > 100 µM (inactive), the GI50 (KM-20L2) was 45.2 µM (inactive) and the GI50 (NCI-H226) was 60.3 µM (inactive). The GI50 (A498) was 97.5 µM (inactive) and the GI50 (EKVX) was > 100 µM (inactive).
